Measured values: ChEMBL document CHEMBL1149997, “Anti-HIV activity of quassinoids” (Bioorg Med Chem Lett, 1996)

How the values were obtained:
[1] = Therapeutic index expressed as the ratio of IC50 to EC50.; conditions: read-out: Therapeutic index
[2] = system: Human immunodeficiency virus 1; experiment: Inhibition of HIV-1 replication in H9 lymphocytic cells.; format: functional, organism-based; conditions: Human immunodeficiency virus 1, H9
[3] = system: H9; experiment: Cytotoxicity against H9 lymphocytic cells.; format: functional, cell-based; conditions: Homo sapiens
[4] = Therapeutic index expressed as the ratio of IC50 to EC50; No effect
[5] = system: H9; experiment: Compound was tested for inhibitory activity against HIV replication in H9 lymphocytic cells; No effect; format: functional, cell-based, Homo sapiens
[6] = system: H9; experiment: Compound was tested for inhibitory activity against HIV replication in H9 lymphocytic cells; Toxic at all concentrations; format: functional, cell-based, Homo sapiens
[7] = system: H9; experiment: Compound was tested for cytotoxicity against H9 lymphocytic cells; Toxic at all concentrations; format: functional, cell-based, Homo sapiens

Row | Compound | EC50 [2] [µM] | EC50 [5] | selectivity ratio [1] | IC50 [3] [µM] | Therapeutic index [4] | EC50 [6] | IC50 [7]
1 | COC(=O)[C@]12OC[C@]34[C@H]([C@@H](O)[C@@H]1O)[C@@]1(C)CC(=O)C(O[C@@H]5O[C@H](CO)[C@@H](O)[C@H](O)[C@H]5O)=C(C)[C@@H]1C[C@H]3OC(=O)[C@H](OC(=O)/C=C(\C)C(C)C)[C@@H]24 [Yadanzioside P] | 18 | – | 1 | 18 | – | – | –
2 | CC1=CC(=O)[C@@H](O)[C@]2(C)[C@H]3[C@@]4(O)C(=O)OC[C@@]35[C@@H](C[C@@H]12)OC(=O)C[C@H]5[C@H]4C [SHINJUDILACTONE] | 43 | – | > 6.2 | > 266 | – | – | –
3 | COC(=O)[C@]12OC[C@]34[C@H]([C@@H](O)[C@@H]1O)[C@@]1(C)C=C(O[C@@H]5O[C@H](CO)[C@@H](O)[C@H](O)[C@H]5O)C(=O)[C@@H](C)[C@@H]1C[C@H]3OC(=O)[C@H](OC(=O)/C=C(\C)C(C)(C)OC(C)=O)[C@@H]24 [Yadanzioside G] | 23 | – | 1.6 | 37 | – | – | –
4 | Nc1ccn([C@H]2CC[C@@H](CO)O2)c(=O)n1 [ZALCITABINE] | 0.03 | – | 16700 | 500 | – | – | –
5 | CC(C)CC(=O)O[C@H]1C(=O)O[C@@H]2C[C@H]3[C@H](C)C(=O)C(O[C@@H]4O[C@H](CO)[C@@H](O)[C@H](O)[C@H]4O)=C[C@]3(C)[C@H]3[C@@H](O)[C@H](O)[C@]4(C(=O)O)OC[C@]32[C@@H]14 [BRUCEOSIDE E] | 74 | – | 0.8 | 59 | – | – | –
6 | COC(=O)[C@]12OC[C@]34[C@H]([C@@H](O)[C@@H]1O)[C@@]1(C)C=C(O[C@@H]5O[C@H](CO)[C@@H](O)[C@H](O)[C@H]5O)C(=O)[C@@H](C)[C@@H]1C[C@H]3OC(=O)[C@H](OC(=O)CC(C)C)[C@@H]24 [Yadanzioside A] | 110 | – | 1.3 | 146 | – | – | –
7 | COC(=O)[C@]12OC[C@]34[C@H]([C@@H](O)[C@@H]1O)[C@@]1(C)C(=O)C(O[C@@H]5O[C@H](CO)[C@@H](O)[C@H](O)[C@H]5O)=C[C@@H](C)[C@@H]1C[C@H]3OC(=O)[C@H](OC(=O)/C=C(\C)C(C)(C)OC(C)=O)[C@@H]24 [Bruceantinoside C] | 46 | – | 0.6 | 26 | – | – | –
8 | COC(=O)[C@@]12OC[C@]34[C@H]([C@@H](O)[C@@H]1O)[C@@]1(C)C=C(O[C@@H]5O[C@H](CO)[C@@H](O)[C@H](O)[C@H]5O)C(=O)[C@@H](C)[C@@H]1C[C@H]3OC(=O)[C@H](OC(=O)c1ccccc1)[C@@H]24 [YADANZIOSIDE-M] | – | Not Active | – | 7 | Not Active | – | –
9 | COC(=O)C(C)[C@@H]1CC(=O)O[C@@H]2C[C@H]3C(C)=CC(=O)[C@@H](O)[C@]3(C)[C@H]3C(=O)OC[C@]321 (some centres not stated) [AILANTINOL A] | 30 | – | > 8.2 | > 246 | – | – | –
10 | COC(=O)[C@]12OC[C@]34[C@H]([C@@H](O)[C@@H]1O)[C@@]1(C)C=C(O[C@@H]5O[C@H](CO)[C@@H](O)[C@H](O)[C@H]5O)C(=O)[C@@H](C)[C@@H]1C[C@H]3OC(=O)[C@H](OC(=O)/C=C(\C)C(C)(C)O)[C@@H]24 [YADANZIOSIDE C] | – | Not Active | – | 55 | Not Active | – | –
11 | COC(=O)[C@@]12OC[C@]34[C@H]([C@@H](O)[C@@H]1O)[C@@]1(C)C=C(O[C@@H]5O[C@H](CO)[C@@H](O)[C@H](O)[C@H]5O)C(=O)[C@@H](C)[C@@H]1C[C@H]3OC(=O)[C@H](OC(=O)C=C(C)C)[C@@H]24 [BRUCEOSIDE A] | 29 | – | 1 | 29 | – | – | –
12 | CC(=O)OC(C)(C)/C(C)=C/C(=O)O[C@H]1C(=O)O[C@@H]2C[C@H]3[C@H](C)C(=O)C(O[C@@H]4O[C@H](CO)[C@@H](O)[C@H](O)[C@H]4O)=C[C@]3(C)[C@H]3[C@@H](O)[C@H](O)[C@@]4(C(=O)O)OC[C@]32[C@@H]14 [Bruceoside-F] | 112 | – | > 1.2 | > 132 | – | – | –
13 | COC(=O)[C@]12OC[C@]34[C@H]([C@@H](O)[C@@H]1O)[C@@]1(C)CC(=O)C(O[C@@H]5O[C@H](CO)[C@@H](O)[C@H](O)[C@H]5O)=C(C)[C@@H]1C[C@H]3OC(=O)[C@H](OC(=O)/C=C(\C)C(C)(C)O)[C@@H]24 [Yadanzioside L] | 5 | – | 2 | 10 | – | – | –
14 | COC(=O)[C@@]12OC[C@]34[C@H](OC(=O)C[C@@H]13)[C@H](OC(=O)C=C(C)C)[C@H]1C(C)=C(O[C@@H]3O[C@H](CO)[C@@H](O)[C@H](O)[C@H]3O)C(=O)C[C@]1(C)[C@H]4[C@@H](O)[C@@H]2O [BRUCEOSIDE C] | – | Not Active | – | 44 | Not Active | – | –
15 | C=C1[C@@H](O)[C@]2(O)OC[C@@]34[C@H]1[C@@H](OC(=O)C(C)(O)CC)C(=O)O[C@@H]3C[C@H]1C(C)=CC(=O)[C@@H](O)[C@]1(C)[C@@H]24 (some centres not stated) | – | – | – | – | – | Toxic at all concentrations | Toxic at all concentrations
16 | COC(=O)[C@]12OC[C@]34[C@H]([C@@H](O)[C@@H]1O)[C@@]1(C)CC(=O)C(O[C@@H]5O[C@H](CO)[C@@H](O)[C@H](O)[C@H]5O)=C(C)[C@@H]1C[C@H]3OC(=O)[C@H](OC(=O)CC(C)C)[C@@H]24 [Yadanzioside B] | 5 | – | 0.8 | 4 | – | – | –

More lines, main results first:

Row | EC50 [2] [µM] | EC50 [5] | Compound | selectivity ratio [1] | IC50 [3] [µM] | Therapeutic index [4] | EC50 [6] | IC50 [7]
17 | 3 | – | COC(=O)[C@]12OC[C@]34[C@H]([C@@H](O)[C@@H]1O)[C@@]1(C)CC(=O)C(O[C@@H]5O[C@H](CO)[C@@H](O)[C@H](O)[C@H]5O)=C(C)[C@@H]1C[C@H]3OC(=O)[C@H](OC(=O)C=C(C)C)[C@@H]24 [Bruceoside-B] | 1 | 3 | – | – | –
18 | 179 | – | C[C@@H]1C[C@H](O)C(=O)[C@]2(C)[C@H]3[C@H](O)C(=O)[C@H](C)[C@@H]4CC(=O)O[C@H](C[C@@H]12)[C@]34C [AMAROLIDE] | > 1.5 | > 275 | – | – | –
19 | 10.6 | – | CC1=CC(=O)[C@@H](O)[C@@]2(C)C1C[C@H]1OC(=O)C[C@H]3[C@H](C)[C@H](O)C(=O)[C@@H]2[C@@]13CO (some centres not stated) | > 25 | > 264 | – | – | –
20 | – | Not Active | COC(=O)[C@]12OC[C@]34[C@H]([C@@H](O)[C@@H]1O)[C@@]1(C)[C@H](O)[C@H](O[C@@H]5O[C@H](CO)[C@@H](O)[C@H](O)[C@H]5O)C=C(C)[C@@H]1C[C@H]3OC(=O)[C@H](OC(=O)C=C(C)C)[C@@H]24 [Yadanzioside E] | – | 29 | Not Active | – | –
21 | – | Not Active | CC(C)=CC(=O)O[C@H]1C(=O)O[C@@H]2C[C@H]3[C@H](C)C(=O)C(O[C@@H]4O[C@H](CO)[C@@H](O)[C@H](O)[C@H]4O)=C[C@]3(C)[C@H]3[C@@H](O)[C@H](O)[C@]4(C(=O)O)OC[C@]32[C@@H]14 [BRUCEOSIDE D] | – | 52 | Not Active | – | –
22 | – | Not Active | COC(=O)[C@]12OC[C@]34[C@H]([C@@H](O)[C@@H]1O)[C@@]1(C)C(=O)C(O[C@@H]5O[C@H](CO)[C@@H](O)[C@H](O)[C@H]5O)=C[C@@H](C)[C@@H]1C[C@H]3OC(=O)[C@H](OC(=O)/C=C(\C)C(C)C)[C@@H]24 [Yadanzioside N] | – | 49 | Not Active | – | –
23 | 109 | – | COC(=O)[C@]12OC[C@]34[C@H]([C@@H](O)[C@@H]1O)[C@@]1(C)C=C(O[C@@H]5O[C@H](CO)[C@@H](O)[C@H](O)[C@H]5O)C(=O)[C@@H](C)[C@@H]1C[C@H]3OC(=O)[C@H](OC(C)=O)[C@@H]24 [YADANZIOSIDE F] | 1.4 | 156 | – | – | –
24 | 246 | – | CC(=O)O[C@@H]1C(=O)[C@H](C)[C@@H]2CC(=O)O[C@@H]3C[C@H]4[C@H](C)CC(O)C(=O)[C@]4(C)[C@@H]1[C@@]32C (some centres not stated) | > 1 | > 246 | – | – | –
25 | 5 | – | C=C1[C@H](O)[C@]2(O)OC[C@]34[C@H]2[C@@]2(C)[C@H](O)[C@@H](O)C=C(C)[C@@H]2C[C@H]3OC(=O)C[C@@H]14 [SHINJULACTONE A] | 1 | 5 | – | – | –
26 | – | Not Active | COC(=O)[C@]12OC[C@]34[C@H]([C@@H](O)[C@@H]1O)[C@@]1(C)C=C(O[C@@H]5O[C@H](CO)[C@@H](O)[C@H](O)[C@H]5O)C(=O)[C@@H](C)[C@@H]1C[C@H]3OC(=O)[C@H](OC(=O)/C=C(\C)C(C)C)[C@@H]24 [Bruceantinoside-A] | – | 4 | Not Active | – | –
